This passage reports Solubility in water results from patent US12297235B2, “Synthetic peptide compounds and methods of use” (REALTA HOLDINGS, LLC, priority 2015, dated 2025).

Square brackets hold non-standard residues; d marks the D form. Peptide text beside a SMILES is read from it. PEG24 = NCCOCCOCCOCCOCCOCCOCCOCCOCCOCCOCCOCCOCCOCCOCCOCCOCCOCCOCCOCCOCCOCCOCCOCCOCCC(=O)O; Sar = CNCC(=O)O

The nature of the data set: Solubility in water. The data set is classed as physicochemical. Conditions: Table 7, PEGylated and Sar/Ala substitution peptides.
For the compound `CC[C@H](C)[C@H](N)C(=O)N[C@@H](C)C(=O)N[C@@H](CC(C)C)C(=O)N[C@H](C(=O)N[C@@H](CC(C)C)C(=O)N[C@@H](C)C(=O)N1CCC[C@H]1C(=O)N[C@H](C(=O)N[C@@H](CS)C(=O)N[C@@H](CS)C(=O)N[C@@H](CCC(N)=O)C(=O)N[C@@H](C)C(=O)N[C@@H](CCCNC(=N)N)C(=O)N[C@@H](C)C(=O)N[C@@H](C)C(=O)NCCOCCOCCOCCOCCOCCOCCOCCOCCOCCOCCOCCOCCOCCOCCOCCOCCOCCOCCOCCOCCOCCOCCOCCOCCC(=O)O)[C@@H](C)CC)[C@@H](C)CC` [E6AE12A-dPEG24] (H-IALILAPICCQARAA[PEG24]-OH), the Solubility in water result was “Yes”.

With `CC[C@H](C)[C@H](N)C(=O)N[C@@H](C)C(=O)N[C@@H](CC(C)C)C(=O)N[C@H](C(=O)N[C@@H](CC(C)C)C(=O)N[C@@H](CCC(=O)O)C(=O)N1CCC[C@H]1C(=O)N[C@H](C(=O)N[C@@H](CS)C(=O)N[C@@H](CS)C(=O)N[C@@H](CCC(N)=O)C(=O)N[C@@H](CCC(=O)O)C(=O)N[C@@H](CCCNC(=N)N)C(=O)N(C)CC(=O)N[C@@H](C)C(=O)NCCOCCOCCOCCOCCOCCOCCOCCOCCOCCOCCOCCOCCOCCOCCOCCOCCOCCOCCOCCOCCOCCOCCOCCOCCC(=O)O)[C@@H](C)CC)[C@@H](C)CC` [PA-A14Sar-dPEG24], the Solubility in water result is “Yes”. For the compound `CC[C@H](C)[C@H](N)C(=O)N[C@@H](C)C(=O)N[C@@H](CC(C)C)C(=O)N[C@H](C(=O)N[C@@H](CC(C)C)C(=O)N[C@@H](CCC(=O)O)C(=O)N1CCC[C@H]1C(=O)N[C@H](C(=O)N(C)CC(=O)N[C@@H](C)C(=O)N[C@@H](CCC(N)=O)C(=O)N[C@@H](CCC(=O)O)C(=O)N[C@@H](CCCNC(=N)N)C(=O)N[C@@H](C)C(=O)N[C@@H](C)C(=O)O)[C@@H](C)CC)[C@@H](C)CC` [PA-C9SarC10A] (H-IALILEPI[Sar]AQERAA-OH), the Solubility in water result is given as “Yes”.

Consider `CC[C@H](C)[C@H](N)C(=O)N[C@@H](C)C(=O)N[C@@H](CC(C)C)C(=O)N[C@H](C(=O)N[C@@H](CC(C)C)C(=O)N[C@@H](CCC(=O)O)C(=O)N1CCC[C@H]1C(=O)N[C@H](C(=O)N(C)CC(=O)N[C@@H](CCC(N)=O)C(=O)N[C@@H](CCC(=O)O)C(=O)N[C@@H](CCCNC(=N)N)C(=O)N[C@@H](C)C(=O)N[C@@H](C)C(=O)O)[C@@H](C)CC)[C@@H](C)CC` [PA-C9SarD10] (H-IALILEPI[Sar]QERAA-OH), for which the Solubility in water result is “Yes”. In the case of `CC[C@H](C)[C@H](N)C(=O)N[C@@H](C)C(=O)N[C@@H](CC(C)C)C(=O)N[C@H](C(=O)N[C@@H](CC(C)C)C(=O)N(C)CC(=O)N1CCC[C@H]1C(=O)N[C@H](C(=O)N[C@@H](CS)C(=O)N[C@@H](CS)C(=O)N[C@@H](CCC(N)=O)C(=O)N[C@@H](CCC(=O)O)C(=O)N[C@@H](CCCNC(=N)N)C(=O)N[C@@H](C)C(=O)N[C@@H](C)C(=O)NCCOCCOCCOCCOCCOCCOCCOCCOCCOCCOCCOCCOCCOCCOCCOCCOCCOCCOCCOCCOCCOCCOCCOCCOCCC(=O)O)[C@@H](C)CC)[C@@H](C)CC` [PA-E6Sar-dPEG24], the Solubility in water result is on record as “Yes”. The result for `CC[C@H](C)[C@H](N)C(=O)N[C@@H](C)C(=O)N[C@@H](CC(C)C)C(=O)N[C@H](C(=O)N[C@@H](CC(C)C)C(=O)N[C@@H](CCC(=O)O)C(=O)N(C)CC(=O)N[C@H](C(=O)N(C)CC(=O)N[C@@H](CS)C(=O)N[C@@H](CCC(N)=O)C(=O)N[C@@H](CCC(=O)O)C(=O)N[C@@H](CCCNC(=N)N)C(=O)N[C@@H](C)C(=O)N[C@@H](C)C(=O)O)[C@@H](C)CC)[C@@H](C)CC` [PA-P7SarC9Sar, IALILE(Sar)I(Sar)CQERAA] (H-IALILE[Sar]I[Sar]CQERAA-OH) reads “Yes”; that for `CC[C@H](C)[C@H](N)C(=O)N[C@@H](C)C(=O)N[C@@H](CC(C)C)C(=O)N[C@H](C(=O)N[C@@H](CC(C)C)C(=O)N[C@@H](CCC(=O)O)C(=O)N1CCC[C@H]1C(=O)N[C@H](C(=O)N[C@@H](CS)C(=O)N[C@@H](CS)C(=O)N(C)CC(=O)N[C@@H](CCC(=O)O)C(=O)N[C@@H](CCCNC(=N)N)C(=O)N[C@@H](C)C(=O)N[C@@H](C)C(=O)NCCOCCOCCOCCOCCOCCOCCOCCOCCOCCOCCOCCOCCOCCOCCOCCOCCOCCOCCOCCOCCOCCOCCOCCOCCC(=O)O)[C@@H](C)CC)[C@@H](C)CC` [PA-Q11Sar-dPEG24], “Yes”.

For `CC[C@H](C)[C@H](N)C(=O)N[C@@H](C)C(=O)N[C@@H](CC(C)C)C(=O)N[C@H](C(=O)N[C@@H](CC(C)C)C(=O)N[C@@H](CCC(=O)O)C(=O)N1CCC[C@H]1C(=O)N[C@H](C(=O)N[C@@H](CS)C(=O)N[C@@H](CS)C(=O)N[C@@H](CCC(N)=O)C(=O)N[C@@H](CCC(=O)O)C(=O)N(C)CC(=O)N[C@@H](C)C(=O)N[C@@H](C)C(=O)NCCOCCOCCOCCOCCOCCOCCOCCOCCOCCOCCOCCOCCOCCOCCOCCOCCOCCOCCOCCOCCOCCOCCOCCOCCC(=O)O)[C@@H](C)CC)[C@@H](C)CC` [PA-R13Sar-dPEG24], the Solubility in water entry is recorded as “Yes”. In the case of `CC[C@H](C)[C@H](N)C(=O)N[C@@H](C)C(=O)N[C@@H](CC(C)C)C(=O)N[C@H](C(=O)N[C@@H](CC(C)C)C(=O)N[C@@H](CCC(=O)O)C(=O)N1CCC[C@H]1C(=O)N[C@H](C(=O)N(C)CC(=O)N[C@@H](CS)C(=O)N[C@@H](CCC(N)=O)C(=O)N[C@@H](CCC(=O)O)C(=O)N[C@@H](CCCNC(=N)N)C(=O)N(C)CC(=O)N[C@@H](C)C(=O)O)[C@@H](C)CC)[C@@H](C)CC` [Peptide A14SarC9Sar] (H-IALILEPI[Sar]CQER[Sar]A-OH), the Solubility in water result is given as “No”. Consider `CC[C@H](C)[C@H](N)C(=O)N[C@@H](C)C(=O)N[C@@H](CC(C)C)C(=O)N[C@H](C(=O)N[C@@H](CC(C)C)C(=O)N[C@@H](CCC(=O)O)C(=O)N(C)CC(=O)N[C@H](C(=O)N[C@@H](CS)C(=O)N[C@@H](CS)C(=O)N[C@@H](CCC(N)=O)C(=O)N[C@@H](CCC(=O)O)C(=O)N[C@@H](CCCNC(=N)N)C(=O)N(C)CC(=O)N[C@@H](C)C(=O)O)[C@@H](C)CC)[C@@H](C)CC` [Peptide A14SarP7Sar, IALILE(Sar)ICCQER(Sar)A] (H-IALILE[Sar]ICCQER[Sar]A-OH; N-terminus and C-terminus assumed), for which the Solubility in water entry was “Yes”. With `CC[C@H](C)[C@H](N)C(=O)N[C@@H](C)C(=O)N[C@@H](CC(C)C)C(=O)N[C@H](C(=O)N[C@@H](CC(C)C)C(=O)N[C@@H](C)C(=O)N1CCC[C@H]1C(=O)N[C@H](C(=O)N(C)CC(=O)N[C@@H](CS)C(=O)N[C@@H](CCC(N)=O)C(=O)N[C@@H](C)C(=O)N[C@@H](CCCNC(=N)N)C(=O)N[C@@H](C)C(=O)N[C@@H](C)C(=O)O)[C@@H](C)CC)[C@@H](C)CC` [Peptide E6AE12AC9Sar] (H-IALILAPI[Sar]CQARAA-OH), the Solubility in water result is recorded as “No”. As for `CC[C@H](C)[C@H](N)C(=O)N[C@@H](C)C(=O)N[C@@H](CC(C)C)C(=O)N[C@H](C(=O)N[C@@H](CC(C)C)C(=O)N[C@@H](C)C(=O)N(C)CC(=O)N[C@H](C(=O)N[C@@H](CS)C(=O)N[C@@H](CS)C(=O)N[C@@H](CCC(N)=O)C(=O)N[C@@H](C)C(=O)N[C@@H](CCCNC(=N)N)C(=O)N[C@@H](C)C(=O)N[C@@H](C)C(=O)O)[C@@H](C)CC)[C@@H](C)CC` [Peptide E6AE12AP7Sar] (H-IALILA[Sar]ICCQARAA-OH; N-terminus and C-terminus assumed), the entry is “Yes”.
